Assay results reported in US20050065062A1, “Method of formulating a pharmaceutical composition” (3M Innovative Properties Company, priority 2003, published 2005).
Where two headings read alike, the source gives them in different places.

Key:
[1] = Franz diffusion cell, membrane diffusion across hairless mouse skin; type: in vitro ADME; settings: for relative order for membrane diffusion rate: ranking of excipients
Procedure: Diffusion of the compounds through hairless mouse skin into phosphate buffer in a Franz cell was carried out and measured as described in Example 1, with Sudan I being used in place of Fat Brown RR.

[2] = 0 h
[3] = Franz diffusion cell, membrane diffusion across poly(dimethylsiloxane) membrane; settings: ranking of excipients
[4] = Table 3, saturated solution in alpha-terpineol, 0 hours
[5] = Table 3, saturated solution in alpha-terpineol, 24 hours
[6] = Table 3, saturated solution in isostearic acid, 0 hours
[7] = Table 3, saturated solution in isostearic acid, 24 hours
[8] = Table 3, saturated solution in propylene glycol, 0 hours
[9] = Table 3, saturated solution in propylene glycol, 24 hours
[10] = Table 3, saturated solution in tetraglycol, 0 hours
[11] = Table 3, saturated solution in tetraglycol, 24 hours

## Oc1ccc2ccccc2c1N=Nc1ccccc1 [Sudan I]
[1]; [4]
  CUMULATIVE AMOUNT OF COMPOUND DIFFUSED ACROSS SKIN: 0 μg/10 mL
[1]; [5]
  CUMULATIVE AMOUNT OF COMPOUND DIFFUSED ACROSS SKIN: 72 μg/10 mL
[1]; Table 3, saturated solution in alpha-terpineol, 50 hours
  CUMULATIVE AMOUNT OF COMPOUND DIFFUSED ACROSS SKIN: 201 μg/10 mL
[1]; Table 3, saturated solution in alpha-terpineol, 59 hours
  CUMULATIVE AMOUNT OF COMPOUND DIFFUSED ACROSS SKIN: 259 μg/10 mL
[1]; [6]
  CUMULATIVE AMOUNT OF COMPOUND DIFFUSED ACROSS SKIN: 0 μg/10 mL
[1]; [7]
  CUMULATIVE AMOUNT OF COMPOUND DIFFUSED ACROSS SKIN: 38 μg/10 mL
[1]; Table 3, saturated solution in isostearic acid, 50 hours
  CUMULATIVE AMOUNT OF COMPOUND DIFFUSED ACROSS SKIN: 118 μg/10 mL
[1]; Table 3, saturated solution in isostearic acid, 59 hours
  CUMULATIVE AMOUNT OF COMPOUND DIFFUSED ACROSS SKIN: 149 μg/10 mL
[1]; [8]
  CUMULATIVE AMOUNT OF COMPOUND DIFFUSED ACROSS SKIN: 0 μg/10 mL
[1]; [9]
  CUMULATIVE AMOUNT OF COMPOUND DIFFUSED ACROSS SKIN: 31 μg/10 mL
[1]; Table 3, saturated solution in propylene glycol, 50 hours
  CUMULATIVE AMOUNT OF COMPOUND DIFFUSED ACROSS SKIN: 108 μg/10 mL
[1]; Table 3, saturated solution in propylene glycol, 59 hours
  CUMULATIVE AMOUNT OF COMPOUND DIFFUSED ACROSS SKIN: 142 μg/10 mL
[1]; [10]
  CUMULATIVE AMOUNT OF COMPOUND DIFFUSED ACROSS SKIN: 0 μg/10 mL
[1]; [11]
  CUMULATIVE AMOUNT OF COMPOUND DIFFUSED ACROSS SKIN: 11 μg/10 mL
[1]; Table 3, saturated solution in tetraglycol, 50 hours
  CUMULATIVE AMOUNT OF COMPOUND DIFFUSED ACROSS SKIN: 61 μg/10 mL
[1]; Table 3, saturated solution in tetraglycol, 59 hours
  CUMULATIVE AMOUNT OF COMPOUND DIFFUSED ACROSS SKIN: 81 μg/10 mL
[1]
  relative order for membrane diffusion rate: alpha-terpineol>tetraglycol

## C[C@]12CC[C@H]3[C@@H](CCC4=CC(=O)CC[C@@]43C)[C@@H]1CC[C@@H]2O [Testosterone, testosterone]
[1]; [4]
  CUMULATIVE AMOUNT OF COMPOUND DIFFUSED ACROSS SKIN: 0 μg/10 mL
[1]; Table 3, saturated solution in alpha-terpineol, 6 hours
  CUMULATIVE AMOUNT OF COMPOUND DIFFUSED ACROSS SKIN: 605 μg/10 mL
[1]; Table 3, saturated solution in alpha-terpineol, 12 hours
  CUMULATIVE AMOUNT OF COMPOUND DIFFUSED ACROSS SKIN: 1585 μg/10 mL
[1]; Table 3, saturated solution in alpha-terpineol, 18 hours
  CUMULATIVE AMOUNT OF COMPOUND DIFFUSED ACROSS SKIN: 3043 μg/10 mL
[1]; [5]
  CUMULATIVE AMOUNT OF COMPOUND DIFFUSED ACROSS SKIN: 4414 μg/10 mL
[1]; [6]
  CUMULATIVE AMOUNT OF COMPOUND DIFFUSED ACROSS SKIN: 0 μg/10 mL
[1]; Table 3, saturated solution in isostearic acid, 6 hours
  CUMULATIVE AMOUNT OF COMPOUND DIFFUSED ACROSS SKIN: 74 μg/10 mL
[1]; Table 3, saturated solution in isostearic acid, 12 hours
  CUMULATIVE AMOUNT OF COMPOUND DIFFUSED ACROSS SKIN: 192 μg/10 mL
[1]; Table 3, saturated solution in isostearic acid, 18 hours
  CUMULATIVE AMOUNT OF COMPOUND DIFFUSED ACROSS SKIN: 418 μg/10 mL
[1]; [7]
  CUMULATIVE AMOUNT OF COMPOUND DIFFUSED ACROSS SKIN: 740 μg/10 mL
[1]; [8]
  CUMULATIVE AMOUNT OF COMPOUND DIFFUSED ACROSS SKIN: 0 μg/10 mL
[1]; Table 3, saturated solution in propylene glycol, 6 hours
  CUMULATIVE AMOUNT OF COMPOUND DIFFUSED ACROSS SKIN: 79 μg/10 mL
[1]; Table 3, saturated solution in propylene glycol, 12 hours
  CUMULATIVE AMOUNT OF COMPOUND DIFFUSED ACROSS SKIN: 216 μg/10 mL
[1]; Table 3, saturated solution in propylene glycol, 18 hours
  CUMULATIVE AMOUNT OF COMPOUND DIFFUSED ACROSS SKIN: 546 μg/10 mL
[1]; [9]
  CUMULATIVE AMOUNT OF COMPOUND DIFFUSED ACROSS SKIN: 956 μg/10 mL
[1]; [10]
  CUMULATIVE AMOUNT OF COMPOUND DIFFUSED ACROSS SKIN: 0 μg/10 mL
[1]; Table 3, saturated solution in tetraglycol, 6 hours
  CUMULATIVE AMOUNT OF COMPOUND DIFFUSED ACROSS SKIN: 23 μg/10 mL
[1]; Table 3, saturated solution in tetraglycol, 12 hours
  CUMULATIVE AMOUNT OF COMPOUND DIFFUSED ACROSS SKIN: 46 μg/10 mL
[1]; Table 3, saturated solution in tetraglycol, 18 hours
  CUMULATIVE AMOUNT OF COMPOUND DIFFUSED ACROSS SKIN: 81 μg/10 mL
[1]; [11]
  CUMULATIVE AMOUNT OF COMPOUND DIFFUSED ACROSS SKIN: 119 μg/10 mL
[1]
  relative order for membrane diffusion rate: alpha-terpineol>propylene glycol>isostearic acid>tetraglycol
[1]; saturated solution in alpha-terpineol, 0 hours
  CUMULATIVE AMOUNT OF COMPOUND DIFFUSED ACROSS SKIN: 0 µg/mL
[1]; saturated solution in alpha-terpineol, 6 hours
  CUMULATIVE AMOUNT OF COMPOUND DIFFUSED ACROSS SKIN: 605 µg/mL
[1]; saturated solution in alpha-terpineol, 12 hours
  CUMULATIVE AMOUNT OF COMPOUND DIFFUSED ACROSS SKIN: 1585 µg/mL
[1]; saturated solution in alpha-terpineol, 18 hours
  CUMULATIVE AMOUNT OF COMPOUND DIFFUSED ACROSS SKIN: 3043 µg/mL
[1]; saturated solution in alpha-terpineol, 24 hours
  CUMULATIVE AMOUNT OF COMPOUND DIFFUSED ACROSS SKIN: 4414 µg/mL
[1]; saturated solution in isostearic acid, 0 hours
  CUMULATIVE AMOUNT OF COMPOUND DIFFUSED ACROSS SKIN: 0 µg/mL
[1]; saturated solution in isostearic acid, 6 hours
  CUMULATIVE AMOUNT OF COMPOUND DIFFUSED ACROSS SKIN: 74 µg/mL
[1]; saturated solution in isostearic acid, 12 hours
  CUMULATIVE AMOUNT OF COMPOUND DIFFUSED ACROSS SKIN: 192 µg/mL
[1]; saturated solution in isostearic acid, 18 hours
  CUMULATIVE AMOUNT OF COMPOUND DIFFUSED ACROSS SKIN: 418 µg/mL
[1]; saturated solution in isostearic acid, 24 hours
  CUMULATIVE AMOUNT OF COMPOUND DIFFUSED ACROSS SKIN: 740 µg/mL
[1]; saturated solution in propylene glycol, 0 hours
  CUMULATIVE AMOUNT OF COMPOUND DIFFUSED ACROSS SKIN: 0 µg/mL
[1]; saturated solution in propylene glycol, 6 hours
  CUMULATIVE AMOUNT OF COMPOUND DIFFUSED ACROSS SKIN: 79 µg/mL
[1]; saturated solution in propylene glycol, 12 hours
  CUMULATIVE AMOUNT OF COMPOUND DIFFUSED ACROSS SKIN: 216 µg/mL
[1]; saturated solution in propylene glycol, 18 hours
  CUMULATIVE AMOUNT OF COMPOUND DIFFUSED ACROSS SKIN: 546 µg/mL
[1]; saturated solution in propylene glycol, 24 hours
  CUMULATIVE AMOUNT OF COMPOUND DIFFUSED ACROSS SKIN: 956 µg/mL
[1]; saturated solution in tetraglycol, 0 hours
  CUMULATIVE AMOUNT OF COMPOUND DIFFUSED ACROSS SKIN: 0 µg/mL
[1]; saturated solution in tetraglycol, 6 hours
  CUMULATIVE AMOUNT OF COMPOUND DIFFUSED ACROSS SKIN: 23 µg/mL
[1]; saturated solution in tetraglycol, 12 hours
  CUMULATIVE AMOUNT OF COMPOUND DIFFUSED ACROSS SKIN: 46 µg/mL
[1]; saturated solution in tetraglycol, 18 hours
  CUMULATIVE AMOUNT OF COMPOUND DIFFUSED ACROSS SKIN: 81 µg/mL
[1]; saturated solution in tetraglycol, 24 hours
  CUMULATIVE AMOUNT OF COMPOUND DIFFUSED ACROSS SKIN: 119 µg/mL

## C#C[C@]1(O)CC[C@H]2[C@@H]3CCC4=CC(=O)CC[C@@H]4[C@H]3CC[C@@]21CC [levonorgestrel]
[2]
  CUMULATIVE AMOUNT OF COMPOUND DIFFUSED ACROSS SKIN: 0 μg/10 mL
[3]
  relative order for membrane diffusion rate: alpha-terpineol>isostearic acid>tetraglycol
